Here are results for 14 molecules from PubChem BioAssay (NCI).

Some test systems named below: T-47D breast; SF-295 CNS; 786-0 renal; IGROV1 ovarian; MDA-MB-231 breast; HS 578T breast; SNB-75 CNS; K-562 leukemia; MOLT-4 leukemia; NCI-H522 lung; HOP-92 NSCLC.
Common to all, as to assay: growth of human tumour cells (NCI), 48 h

The structures appear in SMILES notation.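 Following 48 hours of exposure in 96-well plates, responses at five concentrations were used to interpolate endpoints linearly. TGI: concentration producing complete growth inhibition.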

With `O=C(OC(=C(c1ccccc1)c1ccccc1)N1CCCC1=S)C(c1ccccc1)c1ccccc1`, the TGI with T-47D breast, with SF-295 CNS, in the assay on 786-0 renal, with IGROV1 ovarian, in the assay on MDA-MB-231 breast and in the assay with HS 578T breast was more than 10 µM each time. Also, the TGI in the assay with SNB-75 CNS, in the assay with K-562 leukemia and in the assay with MOLT-4 leukemia was more than 10 µM in each case.
As for `C=C1c2nc3ccccc3n2C=C(c2ccccc2)N1c1ccccc1`, the TGI with SF-295 CNS, in the assay with 786-0 renal, with IGROV1 ovarian, in the assay on MDA-MB-231 breast, in the assay with SNB-75 CNS and in the assay on NCI-H522 lung was more than 100 µM each time. Further, the TGI in the assay with HOP-92 NSCLC, with K-562 leukemia and in the assay on MOLT-4 leukemia was more than 100 µM throughout.
Turning to `COc1ccc2oc(C(=O)N3CC(CCl)c4ccc([N+](=O)[O-])cc43)cc2c1` (stereo unspecified), the TGI in the assay with T-47D breast was more than 100 µM; in the assay on SF-295 CNS, 69.6 µM; in the assay with 786-0 renal, 46 µM; with IGROV1 ovarian, 29.5 µM; in the assay with MDA-MB-231 breast, 54.5 µM; with HS 578T breast, 62.2 µM. In addition, the values for the TGI in the assay with SNB-75 CNS, with HOP-92 NSCLC and in the assay with K-562 leukemia were 79.3 µM, more than 100 µM and more than 100 µM, respectively.
Turning to `CC(NC(=O)OC(C)(C)C)C(=O)C(N)=O` (stereo unspecified), the TGI in the assay with T-47D breast, in the assay on 786-0 renal, in the assay on MDA-MB-231 breast, in the assay with HS 578T breast, in the assay with SNB-75 CNS and in the assay with HOP-92 NSCLC was more than 100 µM in each case. In addition, the TGI in the assay on K-562 leukemia and with MOLT-4 leukemia was more than 100 µM throughout.
For `CCOC(=O)c1[nH]c2ccccc2c1C(=O)C[C@H](NC(=O)C(F)(F)F)C(=O)OC`, the TGI in the assay with SF-295 CNS, in the assay with 786-0 renal, in the assay with IGROV1 ovarian, in the assay on MDA-MB-231 breast, with HS 578T breast and in the assay with SNB-75 CNS was more than 100 µM in each case. For the same molecule, the TGI in the assay on NCI-H522 lung, with HOP-92 NSCLC, with K-562 leukemia and in the assay with MOLT-4 leukemia was more than 100 µM throughout.
With `COc1ccc(O)c(C=NCCCN=Cc2cc(OC)ccc2O)c1`, the TGI in the assay with SF-295 CNS is 51.1 µM; with 786-0 renal it was more than 100 µM; in the assay on IGROV1 ovarian, more than 100 µM; in the assay on MDA-MB-231 breast, more than 100 µM; in the assay with HS 578T breast, 68 µM; with SNB-75 CNS, 64.7 µM. The TGI with NCI-H522 lung is more than 100 µM; in the assay with HOP-92 NSCLC it was 65 µM; in the assay with K-562 leukemia, more than 100 µM; in the assay with MOLT-4 leukemia, more than 100 µM.
Take `CCOC(=O)CCC(NC(=O)c1ccc(Nc2nc3ccccc3nc2-c2cccs2)cc1)C(=O)OCC` (stereo unspecified): the TGI in the assay on T-47D breast, in the assay with SF-295 CNS, in the assay with 786-0 renal, in the assay with IGROV1 ovarian, with MDA-MB-231 breast and in the assay with HS 578T breast was more than 100 µM in each case. The TGI in the assay with SNB-75 CNS, in the assay with HOP-92 NSCLC, in the assay on K-562 leukemia and in the assay with MOLT-4 leukemia was more than 100 µM each time.
For `COc1nc2sc3c(c2c(=O)n1CCCSSCCCn1c(OC)nc2sc4c(c2c1=O)CCCC4)CCCC3`, the TGI in the assay with T-47D breast, in the assay with SF-295 CNS, in the assay on 786-0 renal, in the assay with IGROV1 ovarian, with MDA-MB-231 breast and with SNB-75 CNS was more than 100 µM each time. Besides, the TGI with NCI-H522 lung, in the assay with HOP-92 NSCLC, in the assay with K-562 leukemia and in the assay on MOLT-4 leukemia was more than 100 µM throughout.
On to `N/N=C1/CCCc2nonc21`, for which the TGI in the assay on T-47D breast, in the assay with SF-295 CNS, with 786-0 renal, in the assay with IGROV1 ovarian, in the assay on MDA-MB-231 breast and with HS 578T breast was more than 100 µM each time. The TGI in the assay with HOP-92 NSCLC, in the assay on K-562 leukemia and with MOLT-4 leukemia was more than 100 µM throughout.
In the case of `O=S(CCCl)c1c2ccccc2nc2ccccc12` (stereo unspecified), the TGI in the assay on T-47D breast, with SF-295 CNS, in the assay with 786-0 renal, in the assay with IGROV1 ovarian, in the assay with MDA-MB-231 breast and in the assay on SNB-75 CNS was more than 100 µM each time. The TGI in the assay on NCI-H522 lung was 35.6 µM; with HOP-92 NSCLC, more than 100 µM; with K-562 leukemia it was more than 100 µM; with MOLT-4 leukemia, more than 100 µM.
Consider `CCOP(=O)(C=C=C(C)C)OCC`, for which the TGI in the assay with T-47D breast, with SF-295 CNS, in the assay on 786-0 renal, in the assay on IGROV1 ovarian, in the assay on HS 578T breast and in the assay with SNB-75 CNS was more than 100 µM in each case. The TGI in the assay with NCI-H522 lung, in the assay on HOP-92 NSCLC and with K-562 leukemia was more than 100 µM each time.
As to `O=C(O)c1ccc(C(c2c(O)c3ccccc3oc2=O)c2c(O)c3ccccc3oc2=O)cc1`, the TGI in the assay with T-47D breast is more than 100 µM; in the assay on SF-295 CNS, more than 100 µM; in the assay on 786-0 renal, more than 100 µM; in the assay with MDA-MB-231 breast it was more than 100 µM; in the assay on HS 578T breast, 62.7 µM; with HOP-92 NSCLC, 6.04 µM. For the same molecule, the TGI with K-562 leukemia and in the assay on MOLT-4 leukemia was more than 100 µM in each case.
Consider `CCOP(=O)(OCC)/C(C#N)=C/c1cccn1CC(C)C`, for which the TGI in the assay on T-47D breast, in the assay on SF-295 CNS, with 786-0 renal, with IGROV1 ovarian, in the assay on MDA-MB-231 breast and in the assay on SNB-75 CNS was more than 100 µM each time. Besides, the TGI with NCI-H522 lung, in the assay with HOP-92 NSCLC, in the assay with K-562 leukemia and in the assay with MOLT-4 leukemia was more than 100 µM in each case.
Consider `Cc1n[nH]c(=O)n1/N=C/c1c[nH]c2ccccc12`, for which the TGI with T-47D breast, in the assay on SF-295 CNS, in the assay on 786-0 renal, in the assay on IGROV1 ovarian, in the assay with MDA-MB-231 breast and in the assay on SNB-75 CNS was more than 100 µM in each case. The TGI in the assay on NCI-H522 lung, in the assay with HOP-92 NSCLC, with K-562 leukemia and with MOLT-4 leukemia was more than 100 µM in each case.
